In data set [1] the test system is KBv200. The experiment in a line: Reversal effect on P-gp-mediated multidrug resistance in human KBv200 cells assessed as inhibition of cell proliferation incubated for 72 hrs by SRB assay. The data set is classed as functional, cell-based. The settings on record: KBv200, 72 h. (In general: The SRB assay estimates cell density from bound dye.)
Data set [2] relates to NCI/ADR-RES. The experiment in a line: Reversal effect on P-gp-mediated multidrug resistance in human NCI/ADR-RES cells assessed as inhibition of cell proliferation incubated for 72 hrs by SRB assay. The format is functional, cell-based.
Data set [3] concerns KBv200. Put plainly: Reversal fold, ratio of PTX IC50 to PTX IC50 in presence of test compound for reversal effect on P-gp-mediated multidrug resistance in human KBv200 cells incubated for 72 hrs by SRB assay. The format is functional.
Data set [4] relates to KBv200. The experiment in a line: Inhibition of ADR uptake in human KBv200 cells at 10 uM incubated for 10 mins by fluorescence microscopy. The data set is classed as functional, cell-based.
Data set [5] concerns KBv200. Put plainly: Inhibition of ADR uptake in human KBv200 cells at 10 uM incubated for 10 mins by flow cytometry. The data set is classed as functional, cell-based. In general terms: Flow cytometry measures light scatter and fluorescence of single cells or particles in a stream.
The test system of data set [6] is KBv200. Put plainly: Cytotoxicity against human KBv200 cells at 10 uM incubated for 72 hrs by SRB assay relative to control. The format is functional.
The test system of data set [7] is KBv200. Put plainly: Reversal fold, ratio of VNR IC50 to VNR IC50 in presence of test compound for human KBv200 cells incubated for 72 hrs by SRB assay. The data set is classed as functional.
The nature of data set [8]: Inhibition of ADR efflux in human KBv200 cells assessed as ADR accumulation at 1 uM incubated for 3 hrs by flow cytometry (reference value: 25.7 %). The format is functional. Also noted: scale not given: the % may be the effect or the level left.
Data set [9] in a line: Inhibition of ADR uptake in human KBv200 cells assessed as ADR accumulation at 10 uM incubated for 10 mins by flow cytometry (reference value: 6.2 %). The data set is classed as functional. Also on record: scale not given: the % may be the effect or the level left.
A short description of data set [10]: Inhibition of ADR efflux in human KBv200 cells assessed as ADR accumulation at 10 uM incubated for 3 hrs by flow cytometry (reference value: 25.7 %). The data set is classed as functional. Also noted: scale not given: the % may be the effect or the level left.
Data set [11] concerns KBv200. Put plainly: Reversal fold, ratio of ADR IC50 to ADR IC50 in presence of test compound for reversal effect on P-gp-mediated multidrug resistance in human KBv200 cells incubated for 72 hrs by SRB assay. The format is functional.
In data set [12] the target is Multidrug resistance-associated protein 1 (Homo sapiens, UniProt P33527). Put plainly: Inhibition of MRP1 (unknown origin) expressed in HEK293 cells assessed as increase in mitoxantrone accumulation by flow cytometry. The format is cell-based.
Data set [13] deals with KBv200. The experiment in a line: Effect on P-gp level in human KBv200 cells incubated for 24 hrs by qRT-PCR analysis. The format is functional, cell-based. On the technique in general: Real-time PCR tracks product formation cycle by cycle.
For data set [14], the system named is KBv200. The experiment in a line: Inhibition of Rho-123 uptake in human KBv200 cells at 10 uM incubated for 10 mins by flow cytometry. The format is functional, cell-based.
The subject of data set [15] is KBv200. Put plainly: Inhibition of ADR efflux in human KBv200 cells incubated for 3 hrs by fluorescence microscopy. The format is functional, cell-based.
Data set [16] relates to NCI/ADR-RES. The experiment in a line: Reversal fold, ratio of PTX IC50 to PTX IC50 in presence of test compound for reversal effect on P-gp-mediated multidrug resistance in human NCI/ADR-RES cells incubated for 72 hrs by SRB assay. The format is functional.
Data set [17] concerns KBv200. The experiment in a line: Reversal fold, ratio of VNR IC50 to VNR IC50 in presence of test compound for reversal effect on P-gp-mediated multidrug resistance in human KBv200 cells incubated for 72 hrs by SRB assay. The format is functional.
The subject of data set [18] is KBv200. The experiment in a line: Inhibition of calcein AM uptake in human KBv200 cells at 10 uM incubated for 10 mins by flow cytometry. The data set is classed as functional, cell-based.
The subject of data set [19] is NCI/ADR-RES. Put plainly: Reversal fold, ratio of ADR IC50 to ADR IC50 in presence of test compound for reversal effect on P-gp-mediated multidrug resistance in human NCI/ADR-RES cells incubated for 72 hrs by SRB assay. The data set is classed as functional.
Data set [20] can be described thus: Inhibition of ADR uptake in human KBv200 cells assessed as ADR accumulation at 1 uM incubated for 10 mins by flow cytometry (reference value: 6.2 %). The format is functional. Also on record: scale not given: the % may be the effect or the level left.
For data set [21], the system named is NCI/ADR-RES. The experiment in a line: Reversal fold, ratio of VNR IC50 to VNR IC50 in presence of test compound for reversal effect on P-gp-mediated multidrug resistance in human NCI/ADR-RES cells incubated for 72 hrs by SRB assay. The format is functional.
For data set [22], the system named is KBv200. Put plainly: Inhibition of cell proliferation in human KBv200 cells assessed as inhibition of VNR at 10 uM incubated for 72 hrs in presence of VNR by SRB assay relative to control. The format is functional.
Data set [23] concerns the target T1, Broad substrate specificity ATP-binding cassette transporter ABCG2 (Homo sapiens, UniProt Q9UNQ0).
T1 sequence (Q9UNQ0 whole entry): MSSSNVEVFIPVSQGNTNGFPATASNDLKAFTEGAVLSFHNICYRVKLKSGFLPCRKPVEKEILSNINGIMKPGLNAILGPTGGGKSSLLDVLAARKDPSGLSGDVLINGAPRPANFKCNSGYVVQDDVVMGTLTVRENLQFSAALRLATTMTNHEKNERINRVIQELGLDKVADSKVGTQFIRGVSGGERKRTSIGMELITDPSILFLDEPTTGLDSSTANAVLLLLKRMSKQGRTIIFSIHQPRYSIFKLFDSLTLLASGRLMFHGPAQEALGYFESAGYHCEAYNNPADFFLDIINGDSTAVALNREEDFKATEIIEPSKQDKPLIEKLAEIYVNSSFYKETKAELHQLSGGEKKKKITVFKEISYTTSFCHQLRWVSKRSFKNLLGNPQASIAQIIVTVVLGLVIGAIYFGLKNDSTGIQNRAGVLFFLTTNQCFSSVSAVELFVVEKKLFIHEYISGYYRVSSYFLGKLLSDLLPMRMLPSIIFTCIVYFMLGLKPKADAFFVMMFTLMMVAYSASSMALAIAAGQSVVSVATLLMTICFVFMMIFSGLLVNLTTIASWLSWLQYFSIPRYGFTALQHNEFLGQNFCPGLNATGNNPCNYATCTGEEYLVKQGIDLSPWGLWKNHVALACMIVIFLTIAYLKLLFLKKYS
The experiment in a line: Inhibition of BCRP (unknown origin) expressed in HEK293 cells assessed as increase in mitoxantrone accumulation by flow cytometry. The format is cell-based.

The subject of data set [24] is KBv200. Put plainly: Inhibition of cell proliferation in human KBv200 cells incubated for 72 hrs by SRB assay. The format is functional, cell-based. To be noted: KBv200, 72 h.
Data set [25] deals with KBv200. Put plainly: Inhibition of cell proliferation in human KBv200 cells at 10 uM incubated for 72 hrs by SRB assay relative to control. The data set is classed as functional.
Data set [26] relates to KBv200. Put plainly: Antitumor activity against human KBv200 cells xenografted in Balb/cA nude mouse assessed as decrease in tumor size at 8 mg/kg, iv administered on day 0,4,8 and measured for 14 days. The format is functional, organism-based. To be noted: time 14.0 day.

Structures can show the parent of a compound that is named as a salt. The source made the active and inactive calls. The rule behind the calls is not given here.

Sequence of Multidrug resistance-associated protein 1 (P33527 whole entry): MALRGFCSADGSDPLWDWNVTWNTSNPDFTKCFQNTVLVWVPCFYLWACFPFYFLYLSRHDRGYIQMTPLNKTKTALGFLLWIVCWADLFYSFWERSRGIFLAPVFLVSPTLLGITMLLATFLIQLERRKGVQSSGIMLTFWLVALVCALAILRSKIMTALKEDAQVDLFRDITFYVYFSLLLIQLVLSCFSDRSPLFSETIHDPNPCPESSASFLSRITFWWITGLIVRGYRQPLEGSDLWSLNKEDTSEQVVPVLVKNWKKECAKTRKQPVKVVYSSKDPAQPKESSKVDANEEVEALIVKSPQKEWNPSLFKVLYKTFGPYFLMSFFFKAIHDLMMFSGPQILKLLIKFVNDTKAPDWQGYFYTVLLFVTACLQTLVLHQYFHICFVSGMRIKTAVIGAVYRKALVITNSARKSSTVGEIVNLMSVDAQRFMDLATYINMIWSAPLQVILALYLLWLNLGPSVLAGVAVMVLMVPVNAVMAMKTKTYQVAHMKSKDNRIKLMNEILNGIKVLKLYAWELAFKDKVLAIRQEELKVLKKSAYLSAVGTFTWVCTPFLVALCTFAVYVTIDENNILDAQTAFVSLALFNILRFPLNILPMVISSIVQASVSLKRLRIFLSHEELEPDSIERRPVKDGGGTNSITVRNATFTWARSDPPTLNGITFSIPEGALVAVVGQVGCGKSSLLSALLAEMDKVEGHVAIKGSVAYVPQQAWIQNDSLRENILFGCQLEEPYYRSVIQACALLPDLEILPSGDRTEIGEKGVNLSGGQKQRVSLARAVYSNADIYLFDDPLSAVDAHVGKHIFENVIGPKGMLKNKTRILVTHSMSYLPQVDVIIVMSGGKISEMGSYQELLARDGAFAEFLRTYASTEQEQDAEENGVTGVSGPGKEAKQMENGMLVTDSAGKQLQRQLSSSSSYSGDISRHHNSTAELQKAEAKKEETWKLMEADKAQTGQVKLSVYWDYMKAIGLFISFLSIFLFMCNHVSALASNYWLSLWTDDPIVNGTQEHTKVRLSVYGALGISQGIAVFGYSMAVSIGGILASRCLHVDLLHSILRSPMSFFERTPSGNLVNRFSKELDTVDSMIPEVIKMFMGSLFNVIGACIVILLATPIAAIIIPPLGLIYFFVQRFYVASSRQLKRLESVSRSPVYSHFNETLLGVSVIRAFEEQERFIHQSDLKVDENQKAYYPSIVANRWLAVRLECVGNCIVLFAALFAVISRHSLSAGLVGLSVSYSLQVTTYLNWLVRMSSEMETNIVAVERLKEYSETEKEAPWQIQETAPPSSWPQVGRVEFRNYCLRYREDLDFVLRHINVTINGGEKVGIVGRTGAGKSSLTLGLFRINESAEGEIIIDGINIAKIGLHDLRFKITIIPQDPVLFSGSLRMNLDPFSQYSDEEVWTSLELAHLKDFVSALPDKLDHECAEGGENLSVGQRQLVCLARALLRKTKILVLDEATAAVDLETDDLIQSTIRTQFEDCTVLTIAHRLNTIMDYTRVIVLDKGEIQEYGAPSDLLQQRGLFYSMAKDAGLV

One may read the IC50 as the concentration that inhibits the measured activity by half. Turning to `COc1cccc2c1C(=O)c1c(O)c3c(c(O)c1C2=O)C[C@@](O)(C(=O)CO)C[C@@H]3O[C@H]1C[C@H](N)[C@H](O)[C@H](C)O1` [DOXORUBICIN HYDROCHLORIDE], the concentration for half-maximal inhibition (IC50) in the data set with KBv200 [1] amounted to 373 nM; in the data set with NCI/ADR-RES [2], 26000 nM.

What is called inhibition is the drop in the measured response relative to a control, in per cent. Take `CC[C@H](C)C1OC(=O)[C@H](C(C)C)NC(=O)CCCCCCC[C@H](O)[C@@H](C)C[C@@H]1C` (some centres undefined): the “Ratio IC50” value with KBv200 [3] is given as 49.6; with KBv200 [7], 85; in the data set on KBv200 [11] it was 12.4; with NCI/ADR-RES [16], 109.2; with KBv200 [17], 64; in the data set on NCI/ADR-RES [19], 23.9. Also, the “Ratio IC50” value with NCI/ADR-RES [21] came to 65.3. Moreover, the inhibition result with KBv200 [4] and with KBv200 [5] was “inactive” throughout. Moreover, the Activity in the data set with KBv200 [6] was found to be 9.7%; in [8], 29%; in [9] it was 91.7%; in data set [10] it was 90.6%; in data set [20] it was 7.4%. Also, the “inhibition (INH)” value in [12] and in data set [23] was “Active” throughout. In addition, the outcome in the data set with KBv200 [13] was inactive. The inhibition result in the data set on KBv200 [14], in the data set with KBv200 [15] and in the data set with KBv200 [18] was “Active” throughout. The inhibition at 10 µM in the data set with KBv200 [22] worked out at 99.5%.

Consider `COc1ccc(CCN(C)CCCC(C#N)(c2ccc(OC)c(OC)c2)C(C)C)cc1OC` (centres undefined) [VERAPAMIL], for which the inhibition entry in the data set on KBv200 [5] and in the data set with KBv200 [18] was “inactive” each time. This compound registered an Activity with KBv200 [6] of 5%. Further, the “Ratio IC50” value in the data set on KBv200 [7] came out at 59.5. Also, the inhibition result with KBv200 [14] was “Active”. Moreover, the inhibition at 10 µM in the data set with KBv200 [22] was 97.5%.

Turning to `CCC1=C[C@@H]2CN(C1)Cc1c([nH]c3ccccc13)[C@@](C(=O)OC)(c1cc3c(cc1OC)N(C)[C@H]1[C@@](O)(C(=O)OC)[C@H](OC(C)=O)[C@]4(CC)C=CCN5CC[C@]31[C@@H]54)C2` [VINORELBINE], the IC50 with KBv200 [1] turned out to be 205 nM; in the data set on KBv200 [24] it was 298 nM; in the data set with NCI/ADR-RES [2], 3720 nM. Also, the inhibition at 10 µM in the data set with KBv200 [25] was found to be 4.9%. Besides, in the data set on KBv200 [26], the outcome was Active.

Source of the values: ChEMBL document CHEMBL5528088, “Design and Synthesis of Cyclolipopeptide Mimics of Dysoxylactam A and Evaluation of the Reversing Potencies against P-Glycoprotein-Mediated Multidrug Resistance” (J Med Chem, 2024).
